Assay type in all cases: biochemical
One test concerns the target PI3K-alpha (Homo sapiens, UniProt P42336). Briefly: PI3K-alpha fluorescence polarization assay. As to conditions: read-out: PI3 Kinase α IC50. In outline: (§1)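 Diluted enzyme and compound (1% DMSO) reacted with diC8 PIP2 and ATP substrate in 20 mM HEPES pH 7.5, 2 mM MgCl2, 0.05% CHAPS for 30–60 min. Stopped with EDTA buffer holding 10 nM TAMRA probe and 70 nM GST-GRP. FP (mP) read after 30–90 min against zero-time and no-enzyme controls.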
A general note: In fluorescence polarisation assays a small probe gives low polarisation when free and higher when bound to something large.

Another test has as its target Human mTOR (Homo sapiens, UniProt P42345). Briefly: mTOR kinase assay (DELFIA format, purified enzyme). Set-up: FLAG. As to conditions: read-out: TOR Kinase IC50.
Another test has as its target PI3K-gamma (Homo sapiens, UniProt P48736). In words: PI3K-gamma fluorescence polarization assay. As to conditions: read-out: PI3 Kinase γ IC50. The procedure, abridged:
as §1

The target in the next test is human SMG-1 (hSMG-1) (Homo sapiens, UniProt Q96Q15). Briefly: hSMG-1 kinase assay (DELFIA). As to conditions: read-out: hSMG1 IC50.

The structures appear in SMILES notation. Some results are limits rather than exact numbers.

PI3K-alpha, sequence (P42336 whole entry, species assumed): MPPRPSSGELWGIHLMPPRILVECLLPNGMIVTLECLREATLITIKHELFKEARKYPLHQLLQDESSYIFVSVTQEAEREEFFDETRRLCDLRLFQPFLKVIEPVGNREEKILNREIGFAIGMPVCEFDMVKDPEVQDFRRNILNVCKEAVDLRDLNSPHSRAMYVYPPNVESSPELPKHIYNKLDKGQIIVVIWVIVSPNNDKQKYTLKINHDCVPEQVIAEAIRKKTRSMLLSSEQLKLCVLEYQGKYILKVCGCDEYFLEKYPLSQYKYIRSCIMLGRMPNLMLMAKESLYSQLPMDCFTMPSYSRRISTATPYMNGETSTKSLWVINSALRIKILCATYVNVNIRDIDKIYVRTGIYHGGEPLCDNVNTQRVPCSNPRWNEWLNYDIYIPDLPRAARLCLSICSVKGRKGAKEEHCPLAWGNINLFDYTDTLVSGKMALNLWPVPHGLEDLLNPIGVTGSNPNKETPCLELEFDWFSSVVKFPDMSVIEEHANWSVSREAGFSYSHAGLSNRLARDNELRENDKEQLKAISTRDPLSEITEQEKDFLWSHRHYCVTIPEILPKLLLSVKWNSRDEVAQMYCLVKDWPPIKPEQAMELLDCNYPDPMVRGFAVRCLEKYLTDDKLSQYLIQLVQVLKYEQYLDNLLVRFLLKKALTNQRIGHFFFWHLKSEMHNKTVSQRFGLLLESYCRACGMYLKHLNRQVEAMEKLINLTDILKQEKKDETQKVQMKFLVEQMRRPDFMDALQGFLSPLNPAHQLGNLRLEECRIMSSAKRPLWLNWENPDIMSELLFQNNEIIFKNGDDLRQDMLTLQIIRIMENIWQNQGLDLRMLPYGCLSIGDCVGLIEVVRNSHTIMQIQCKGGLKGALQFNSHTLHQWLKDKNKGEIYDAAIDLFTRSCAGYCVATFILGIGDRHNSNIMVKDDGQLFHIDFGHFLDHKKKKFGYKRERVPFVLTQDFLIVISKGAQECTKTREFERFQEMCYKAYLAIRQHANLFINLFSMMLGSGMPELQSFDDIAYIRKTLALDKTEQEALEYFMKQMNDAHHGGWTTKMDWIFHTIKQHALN
PI3K-alpha, sequence (P27986 whole entry partner, species assumed): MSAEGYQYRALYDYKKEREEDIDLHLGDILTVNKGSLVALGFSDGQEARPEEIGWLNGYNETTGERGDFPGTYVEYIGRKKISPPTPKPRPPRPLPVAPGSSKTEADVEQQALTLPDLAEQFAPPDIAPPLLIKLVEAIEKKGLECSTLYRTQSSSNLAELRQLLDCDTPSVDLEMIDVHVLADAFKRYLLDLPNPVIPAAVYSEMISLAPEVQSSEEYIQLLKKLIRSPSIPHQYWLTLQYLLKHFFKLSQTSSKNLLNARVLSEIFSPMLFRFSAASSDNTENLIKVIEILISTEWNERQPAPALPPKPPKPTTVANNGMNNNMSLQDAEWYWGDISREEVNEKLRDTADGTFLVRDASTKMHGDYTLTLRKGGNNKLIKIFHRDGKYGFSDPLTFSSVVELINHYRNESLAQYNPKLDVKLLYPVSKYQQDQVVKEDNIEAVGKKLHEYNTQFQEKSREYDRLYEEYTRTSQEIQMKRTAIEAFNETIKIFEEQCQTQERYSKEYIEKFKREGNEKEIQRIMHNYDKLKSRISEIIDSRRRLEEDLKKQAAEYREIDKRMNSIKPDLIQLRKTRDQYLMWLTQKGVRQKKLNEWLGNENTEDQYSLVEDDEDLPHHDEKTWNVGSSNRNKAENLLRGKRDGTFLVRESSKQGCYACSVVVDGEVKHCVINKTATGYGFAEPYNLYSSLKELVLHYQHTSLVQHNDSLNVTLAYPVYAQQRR
PI3K-gamma, sequence (P48736 whole entry, species assumed): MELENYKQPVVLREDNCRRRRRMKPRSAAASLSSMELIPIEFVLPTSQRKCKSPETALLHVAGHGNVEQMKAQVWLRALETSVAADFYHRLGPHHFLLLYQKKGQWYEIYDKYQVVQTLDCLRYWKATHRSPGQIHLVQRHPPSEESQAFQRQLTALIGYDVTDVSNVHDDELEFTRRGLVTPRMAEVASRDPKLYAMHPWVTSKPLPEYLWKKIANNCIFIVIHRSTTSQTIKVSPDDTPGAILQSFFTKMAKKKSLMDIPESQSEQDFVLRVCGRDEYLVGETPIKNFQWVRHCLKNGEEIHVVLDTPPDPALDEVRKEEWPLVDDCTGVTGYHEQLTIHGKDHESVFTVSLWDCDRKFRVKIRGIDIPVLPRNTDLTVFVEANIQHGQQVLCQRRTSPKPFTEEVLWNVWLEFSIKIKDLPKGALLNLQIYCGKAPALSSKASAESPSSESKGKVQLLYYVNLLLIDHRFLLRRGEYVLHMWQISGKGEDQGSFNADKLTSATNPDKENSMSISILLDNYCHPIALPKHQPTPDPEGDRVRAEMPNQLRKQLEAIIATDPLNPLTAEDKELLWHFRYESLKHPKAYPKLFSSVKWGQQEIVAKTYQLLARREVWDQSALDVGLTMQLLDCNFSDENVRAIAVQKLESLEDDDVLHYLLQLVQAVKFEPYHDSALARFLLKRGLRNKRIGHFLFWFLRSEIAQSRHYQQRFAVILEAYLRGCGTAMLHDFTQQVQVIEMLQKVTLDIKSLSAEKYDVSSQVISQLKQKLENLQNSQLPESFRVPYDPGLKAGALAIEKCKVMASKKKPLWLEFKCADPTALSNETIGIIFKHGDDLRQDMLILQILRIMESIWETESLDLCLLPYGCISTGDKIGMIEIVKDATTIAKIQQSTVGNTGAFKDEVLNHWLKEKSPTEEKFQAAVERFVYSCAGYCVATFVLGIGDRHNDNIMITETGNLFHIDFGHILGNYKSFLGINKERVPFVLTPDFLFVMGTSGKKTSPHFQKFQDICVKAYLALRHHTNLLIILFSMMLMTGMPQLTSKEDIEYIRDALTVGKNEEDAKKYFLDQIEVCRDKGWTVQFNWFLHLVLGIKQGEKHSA

For `CS(=O)(=O)n1ccc2c3nc(-c4cnc(N)nc4)nc(N4CCOCC4)c3ccc21` [Example 73, 5-[7-(methylsulfonyl)-4-morpholin-4-yl-7H-pyrrolo[2,3-h]quinazolin-2-yl]pyrimidin-2-amine], the half-maximal inhibitory concentration (IC50) at PI3K-alpha was found to be 62 nM; at Human mTOR, 63 nM; on PI3K-gamma, 198 nM.
Consider `CS(=O)(=O)n1ccc2c3nc(-c4cccc(CO)c4)nc(N4CCOCC4)c3ccc21` [Example 74, {3-[7-(methylsulfonyl)-4-morpholin-4-yl-7H-pyrrolo[2,3-h]quinazolin-2-yl]phenyl}methanol], for which the IC50 at PI3K-alpha came out at 212 nM; at Human mTOR, 545 nM; at PI3K-gamma, 1190 nM.
In the same order, the values of `COCOc1cncc(-c2nc(N3CCOCC3)c3ccc4c(ccn4S(C)(=O)=O)c3n2)c1` [Example 75, 2-[5-(methoxymethoxy)pyridin-3-yl]-7-(methylsulfonyl)-4-morpholin-4-yl-7H-pyrrolo[2,3-h]quinazoline] are more than 10000 nM, 16500 nM and more than 10000 nM.
In the case of `CS(=O)(=O)n1ccc2c3nc(-c4cncc(O)c4)nc(N4CCOCC4)c3ccc21` [Example 76, 5-[7-(methylsulfonyl)-4-morpholin-4-yl-7H-pyrrolo[2,3-h]quinazolin-2-yl]pyridin-3-ol], the figures for the IC50 at PI3K-alpha, at Human mTOR and at PI3K-gamma were 65 nM, 130 nM and 82 nM, respectively.
Regarding `COCOc1cncc(-c2nc(N3CCOCC3)c3ccc4c(ccn4C)c3n2)c1` [Example 77, 2-[5-(methoxymethoxy)pyridin-3-yl]-7-methyl-4-morpholin-4-yl-7H-pyrrolo[2,3-h]quinazoline], the IC50 at PI3K-alpha was determined as 451 nM; on Human mTOR it was 525 nM; on PI3K-gamma, 933 nM.
With `Cn1ccc2c3nc(-c4cncc(O)c4)nc(N4CCOCC4)c3ccc21` [Example 78, 5-(7-methyl-4-morpholin-4-yl-7H-pyrrolo[2,3-h]quinazolin-2-yl)pyridin-3-ol], the IC50 at PI3K-alpha is 73 nM; on Human mTOR, 305 nM; on PI3K-gamma, 390 nM.
Consider `Cn1ccc2c3nc(-c4cccc5[nH]ncc45)nc(N4CCOCC4)c3ccc21` [Example 79, 2-(1H-indazol-4-yl)-7-methyl-4-morpholin-4-yl-7H-pyrrolo[2,3-h]quinazoline], for which the half-inhibitory concentration (IC50) was found to be 1080 nM on PI3K-alpha, 435 nM on Human mTOR and 6090 nM on PI3K-gamma.
With `c1cc(-c2nc(N3CCOCC3)c3ccc4[nH]ccc4c3n2)c2cn[nH]c2c1` [Example 80, 2-(1H-indazol-4-yl)-4-morpholin-4-yl-7H-pyrrolo[2,3-h]quinazoline], the half-inhibitory concentration (IC50) at PI3K-alpha was 10300 nM; on Human mTOR, 2080 nM; at PI3K-gamma, more than 10000 nM.
In the same order, the values of `O=Cc1c[nH]c2ccc3c(N4CCOCC4)nc(-c4cccc(O)c4)nc3c12` [Example 82, 2-(3-hydroxyphenyl)-4-morpholin-4-yl-7H-pyrrolo[2,3-h]quinazoline-9-carbaldehyde] are 111 nM, 16 nM and 147 nM.
The corresponding values for `OCc1cccc(-c2nc(N3CCOCC3)c3ccc4c(ccn4Cc4ccccc4)c3n2)c1` [Example 83, [3-(7-benzyl-4-morpholin-4-yl-7H-pyrrolo[2,3-h]quinazolin-2-yl)phenyl]methanol] are 123 nM, 1700 nM and 320 nM.
Regarding `CS(=O)(=O)n1ccc2c3nc(-c4ccc(NC(=O)Nc5ccccc5)cc4)nc(N4CCOCC4)c3ccc21` [Example 84, 1-{4-[7-(methylsulfonyl)-4-morpholin-4-yl-7H-pyrrolo[2,3-h]quinazolin-2-yl]phenyl}-3-phenylurea], the 50% inhibitory concentration (IC50) at human SMG-1 (hSMG-1) worked out at 475 nM.
On to `CCOC(=O)Nc1ccc(-c2nc(N3CCOCC3)c3ccc4c(ccn4S(C)(=O)=O)c3n2)cc1` [Example 86, ethyl {4-[7-(methylsulfonyl)-4-morpholin-4-yl-7H-pyrrolo[2,3-h]quinazolin-2-yl]phenyl}carbamate], for which the half-maximal inhibitory concentration (IC50) on human SMG-1 (hSMG-1) was found to be 15500 nM.

As usually defined, the IC50 is the midpoint of a concentration-inhibition curve.
